Values belong to the compound of their own block, whether it stands above or below them.
Experiments:
[1] = test system: lipid droplets (LDs) in Hela cells; test: Co-localization with BODIPY 493/503 in live Hela cells (confocal imaging); type: cell-based; settings: 2 μM TBSM 1 h, co-stained with BODIPY 493/503
Protocol: FIG. 19 Confocal fluorescent images of live HeLa cell stained with 2 μM TBSM (1 h) and 1 μg/mL BODIPY (1 h). TBSM: λex=488 nm, λem=550-650 nm; BODIPY: λex=488 nm, λem=490-535 nm. Scale bar=20 μm. The number on the figure is colocalization coefficient.
To confirm the specificity of the TBSM for LDs imaging, the co-localization experiments were then carried out by incubating Hela cells with TBSM and BODIPY 493/503, a commercial dye for LDs.

A549 and Hela cells = test: Live cell staining of A549 and Hela cells; type: cell-based; settings: 2 μM, 1 h
[2] = test system: LDs of liver tissues of mice; test: Ex vivo co-staining with BODIPY in high-fat feeding mice liver tissue; settings: TBSM 2 μM 1 h, BODIPY 2 μM 1 h
Protocol: FIG. 20 Co-stained ex vivo confocal one-photon (λex=488 nm) images TBSM (2 μM, 1 h) and BODIPY (2 μM, 1 h) in high-fat feeding mice liver tissue. TBSM: λex=488 nm, λem=550-650 nm; BODIPY: μex=488 nm, λem=490-535 nm. Scale bar: 10 μm. The number on the picture is colocalization coefficient.

[3] = test system: LDs in the yolk sac of zebrafish embryos; test: In vivo zebrafish embryo imaging; settings: 3-day-old zebrafish embryos, stained for 30 min
Protocol: FIG. 22 In vivo zebrafish embryo imaging stained with TBSM (1 μM, […]), λex=488 nm, λem=550-650 nm. The right is the enlarged part of white frame in the left.
Yolk sac as a neutral lipid and polar phospholipids storage organ provides energy for the upgrowth of zebrafish. Intense red fluorescence signals originating from the yolk sac in 3-day-old zebrafish embryos were observed after stained with TBSM for 30 min (FIG. 22).

[4] = Photophysical properties (PL emission, quantum yield, AIE); type: physicochemical; settings: for aggregation induced emission (AIE): THF/water mixtures with increasing water fraction
Protocol: FIG. 16A Normalized absorption and PL spectra of TBSM in THF solution (c=10^−5 M) and FIG. 16B Normalized absorption and PL spectra of TBSM in solid state. λex=460 nm.
FIG. 17A PL spectra of TBSM in water/THF mixtures with different water fractions (fw); FIG. 17B Plots of relative PL intensity (αAIE=I/I0, I0=PL intensity in pure THF at 672 nm) vs fw. c=10 μM, λex=460 nm. Insert: the fluorescence pictures of the mixture with fw=50% and 95%.
FIG. 23A Absorption spectra of TBSMCN in THF (c=10^−5 mol/L) and as film. FIG. 23B PL spectra of TBSMCN in THF (c=10^−5 mol/L) and as film, λex=530 nm.
FIG. 24A PL spectra of TBSMCN in H2O/THF mixtures with different water fractions (fw). Concentration: 10^−5 M; λex=530 nm. FIG. 24B Plots of relative emission intensity (I/I0) versus the composition of the mixture, where I0=PL intensity in pure THF at λem=810 nm.
UV spectrum FIG. 27A and PL spectrum FIG. 27B of TBSMPy in film state. λex=560 nm.
UV spectrum FIG. 28A and PL spectrum FIG. 28B of TBSMDPy in film state. λex=580 nm.
The photophysical properties of TBSM were first examined. […] TBSM gave a much brighter red emission in toluene solution with an emission wavelength at 605 nm and a QY of 67.9%. While in THF solution, the emission wavelength red-shifted to 669 nm with a QY of 4.1%.
We then investigated the luminescence behavior of TBSM in the mixture of THF and water to see whether it is AIE-active. When adding water into the THF solution, the photoluminescence (PL) intensity decreased with the water fraction (fw) in a range of 0-50%. In this case, the TICT effect dominated the photophysical process and reduced the emission intensity. When the fw exceeded 50%, the TBSM molecule began to aggregate and made the local microenvironment less polar. Therefore, the conformation rigidification became dominated and reversed the PL intensity from weak to strong.
To gain an insight to the details of the photophyscial properties of TBSM, we analyzed its crystal structure. TBSM molecules also show bright emission in the solid state since the locked nonplanar conformation can avoid the strong intermolecular π-π interactions. Indeed, no strong intermolecular π-π stacking has been observed in the crystal packing of TBSM. However, multiple intermolecular non-covalent interactions such as S . . . π, C≡N . . . π, C—H . . . N, C—H . . . S, and intermolecular hydrogen bonding interactions were observed which helps lock the solid-state molecular motion.
The photophysical properties of TBSMCN were investigated. […] In the film, the ICT peak further red shifted to 580 nm. […] TBSMCN was also AIE-active, showing increased PL emission intensity in the mixture of THF and water as the water fraction increased (FIG. 24A and FIG. 24B).
The photophysical properties of TBSMPy and TBSMDPy were studied. In the film state, they had absorption peaks around 400 nm and 580 nm. The emission peaks were at 750 nm with high QY of 16.3% and 25.0% for TBSMPy and TBSMDPy, respectively (FIGS. 27 and 28).

QY ([4]; THF solution): 4.1%
emission wavelength ([4]; THF solution): 669 nm
aggregation induced emission (AIE) [4]: exhibits typical AIE property
emission wavelength ([4]; solid): 670 nm
quantum yield ([4]; solid): 13%
QY ([4]; toluene solution): 67.9%
emission wavelength ([4]; toluene solution): 605 nm
SMILES: N#CC(C#N)=C1Sc2c(F)c(-c3ccc(N(c4ccccc4)c4ccccc4)cc3)c3nsnc3c2S1 [TBSM]
co-localization coefficient [1]: 0.91
permeability for living cells (A549 and Hela cells): fast permeability
co-localization coefficient [2]: 0.97
specificity toward LDs in vivo [3]: highly specific toward LDs

QY ([4]; film state): 25.0%
emission peak ([4]; film state): 750 nm
SMILES: N#CC(C#N)=C1Sc2c(c(-c3ccc(N(c4ccccc4)c4ccccc4)cc3)c3nsnc3c2C#Cc2cc(C#Cc3cccnc3)cc(C#Cc3cccnc3)c2)S1 [TBSMDPy]

QY ([4]; film state): 16.3%
emission peak ([4]; film state): 750 nm
SMILES: N#CC(C#N)=C1Sc2c(c(-c3ccc(N(c4ccccc4)c4ccccc4)cc3)c3nsnc3c2C#Cc2ccncc2)S1 [TBSMPy]

aggregation induced emission (AIE) [4]: AIE-active
QY ([4]; film state): about 10%
SMILES: N#CC(C#N)=C1Sc2c(c(-c3ccc(N(c4ccccc4)c4ccccc4)cc3)c3nsnc3c2C#N)S1 [TBSMCN]
